Legend:
Assay type in all cases: cell-based, human
[1] = tested on: MDA-MB-231 (MDA-MB-231/ATCC); test: NCI in vitro cancer screen, Breast Cancer; settings: MDA-MB-231
[2] = tested on: A549/ATCC; test: NCI in vitro cancer screen, Non-Small Cell Lung Cancer
[3] = tested on: OVCAR-3; test: NCI in vitro cancer screen, Ovarian Cancer; settings: OVCAR-3
[4] = tested on: SW-620; test: NCI in vitro cancer screen, Colon Cancer; settings: SW-620
[5] = tested on: RXF-393; test: NCI in vitro cancer screen, Renal Cancer; settings: RXF-393
[6] = tested on: NCI-H226; test: NCI in vitro cancer screen, Non-Small Cell Lung Cancer; settings: NCI-H226
[7] = tested on: UACC-257; test: NCI in vitro cancer screen, Melanoma; settings: UACC-257
[8] = tested on: NCI-H522; test: NCI in vitro cancer screen, Non-Small Cell Lung Cancer; settings: NCI-H522
[9] = tested on: IGROV1; test: NCI in vitro cancer screen, Ovarian Cancer; settings: IGROV1
[10] = tested on: OVCAR-8; test: NCI in vitro cancer screen, Ovarian Cancer; settings: OVCAR-8
[11] = tested on: 786-0; test: NCI in vitro cancer screen, Renal Cancer; settings: 786-0
[12] = tested on: MDA-MB-468; test: NCI in vitro cancer screen, Breast Cancer; settings: MDA-MB-468
[13] = tested on: SF-295; test: NCI in vitro cancer screen, CNS Cancer; settings: SF-295
[14] = tested on: MDA-MB-435; test: NCI in vitro cancer screen, Melanoma; settings: MDA-MB-435
[15] = tested on: DU-145; test: NCI in vitro cancer screen, Prostate Cancer; settings: DU-145
[16] = tested on: SK-MEL-5; test: NCI in vitro cancer screen, Melanoma; settings: SK-MEL-5
[17] = tested on: HCC-2998; test: NCI in vitro cancer screen, Colon Cancer; settings: HCC-2998
[18] = tested on: K-562; test: NCI in vitro cancer screen, Leukemia; settings: K-562
[19] = tested on: HS 578T; test: NCI in vitro cancer screen, Breast Cancer
[20] = tested on: SR; test: NCI in vitro cancer screen, Leukemia
[21] = tested on: NCI-H322M; test: NCI in vitro cancer screen, Non-Small Cell Lung Cancer
[22] = tested on: ACHN; test: NCI in vitro cancer screen, Renal Cancer
[23] = tested on: SK-MEL-28; test: NCI in vitro cancer screen, Melanoma; settings: SK-MEL-28
[24] = tested on: CCRF-CEM; test: NCI in vitro cancer screen, Leukemia
[25] = tested on: HCT-116; test: NCI in vitro cancer screen, Colon Cancer; settings: HCT-116
[26] = tested on: SNB-75; test: NCI in vitro cancer screen, CNS Cancer; settings: SNB-75
[27] = tested on: M14; test: NCI in vitro cancer screen, Melanoma; settings: M14
[28] = tested on: SK-OV-3; test: NCI in vitro cancer screen, Ovarian Cancer; settings: SK-OV-3
[29] = tested on: SNB-19; test: NCI in vitro cancer screen, CNS Cancer; settings: SNB-19
[30] = tested on: MCF7; test: NCI in vitro cancer screen, Breast Cancer; settings: MCF7
[31] = tested on: EKVX; test: NCI in vitro cancer screen, Non-Small Cell Lung Cancer
[32] = Homo sapiens, read-out: LC50 (the source's name)

Structure (SMILES): COc1cc(/C=C/c2cc(O)c(CC=C(C)C)c(O)c2)ccc1O [USYDS13, (E)-4-(3-methyl-2-buten-1-yl)-3,4′,5-trihydroxy-3′-methoxystilbene]
- GI50 ([1]; Homo sapiens): 1.63 µM
- CC50 [1, 32]: > 100 µM
- TGI [1]: 7.82 µM
- TGI [2]: 20.4 µM
- GI50 ([2]; Homo sapiens): 4.01 µM
- CC50 [2, 32]: > 100 µM
- GI50 ([3]; Homo sapiens): 7.98 µM
- CC50 [3, 32]: > 100 µM
- TGI [3]: 39.8 µM
- GI50 ([4]; Homo sapiens): 3.98 µM
- CC50 [4, 32]: 42.8 µM
- TGI [4]: 15.9 µM
- GI50 ([5]; Homo sapiens): 5.48 µM
- CC50 [5, 32]: 46.5 µM
- TGI [5]: 18.9 µM
- GI50 ([6]; Homo sapiens): 10.9 µM
- LC50 (50% lethal concentration) ([6]; Homo sapiens): > 100 µM
- TGI [6]: 50.1 µM
- GI50 ([7]; Homo sapiens): 5.35 µM
- CC50 [7, 32]: 44 µM
- TGI [7]: 18.1 µM
- GI50 ([8]; Homo sapiens): 2.13 µM
- CC50 [8, 32]: 25.6 µM
- TGI [8]: 59.8 µM
- GI50 ([9]; Homo sapiens, IGROV-1): 6.7 µM
- CC50 ([9]; Homo sapiens, IGROV-1, read-out: LC50 (the source's name)): > 100 µM
- TGI [9]: 86.2 µM
- GI50 ([10]; Homo sapiens): 5.48 µM
- CC50 [10, 32]: > 100 µM
- TGI [10]: 59.8 µM
- TGI [11]: 24.5 µM
- GI50 ([11]; Homo sapiens): 5.24 µM
- LC50 (50% net cell kill) ([11]; Homo sapiens): > 100 µM
- GI50 ([12]; Homo sapiens): 1.68 µM
- CC50 [12, 32]: > 100 µM
- TGI [12]: 7.63 µM
- GI50 ([13]; Homo sapiens): 5.22 µM
- CC50 [13, 32]: 77.5 µM
- TGI [13]: 23.5 µM
- GI50 ([14]; Homo sapiens): 3.08 µM
- CC50 [14, 32]: > 100 µM
- TGI [14]: 15.9 µM
- TGI [15]: 31.6 µM
- GI50 ([15]; Homo sapiens): 6.82 µM
- CC50 [15, 32]: > 100 µM
- GI50 ([16]; Homo sapiens): 2.5 µM
- CC50 [16, 32]: 29.2 µM
- TGI [16]: 8.54 µM
- TGI [17]: 30.6 µM
- GI50 ([17]; Homo sapiens): 11 µM
- CC50 [17, 32]: 85.3 µM
- GI50 ([18]; Homo sapiens, K562): 4.08 µM
- CC50 ([18]; Homo sapiens, K562, read-out: LC50 (the source's name)): > 100 µM
- TGI [18]: 57.5 µM
- TGI [19]: 15.0 µM
- GI50 ([19]; Homo sapiens): 2.4 µM
- CC50 [19, 32]: > 100 µM
- TGI [20]: >100 µM
- GI50 ([20]; Homo sapiens): 2.8 µM
- CC50 [20, 32]: > 100 µM
- TGI [21]: 28.5 µM
- GI50 ([21]; Homo sapiens): 5.9 µM
- LC50 (50% lethal concentration) ([21]; Homo sapiens): > 100 µM
- TGI [22]: >100 µM
- GI50 ([22]; Homo sapiens): 5.11 µM
- CC50 [22, 32]: > 100 µM
- GI50 ([23]; Homo sapiens): 5.64 µM
- LC50 ([23]; Homo sapiens): 70.5 µM
- TGI [23]: 22.5 µM
- TGI [24]: >100 µM
- GI50 ([24]; Homo sapiens): 6.56 µM
- CC50 [24, 32]: > 100 µM
- TGI [25]: 15.6 µM
- GI50 ([25]; Homo sapiens): 4.33 µM
- LC50 (concentration killing 50% of cells) ([25]; Homo sapiens): 45.6 µM
- GI50 ([26]; Homo sapiens): 5.47 µM
- CC50 [26, 32]: > 100 µM
- TGI [26]: 36.6 µM
- GI50 ([27]; Homo sapiens): 4.92 µM
- CC50 [27, 32]: 51.6 µM
- TGI [27]: 18.5 µM
- GI50 ([28]; Homo sapiens): 7.96 µM
- CC50 [28, 32]: > 100 µM
- TGI [28]: 36.2 µM
- GI50 ([29]; Homo sapiens): 8.02 µM
- CC50 [29, 32]: 64.5 µM
- TGI [29]: 24.2 µM
- GI50 ([30]; Homo sapiens): 0.68 µM
- CC50 [30, 32]: 82.7 µM
- TGI [30]: 19.9 µM
- TGI [31]: 54.6 µM
- GI50 ([31]; Homo sapiens): 12.8 µM
- CC50 [31, 32]: > 100 µM

— patent US10696615B2, “Prenylated hydroxystilbenes” (The University of Sydney, priority 2011, dated 2020)
